Assay results taken from patent publication US9382267B2, “Small molecule inhibitors of nicotinamide phosphoribosyltransferase (NAMPT)” (The Curators of the University of Missouri, priority 2011, dated 2016).
Where two headings read alike, the source gives them in different places.

Experiments:
[1] = system: A549 human lung cancer cell line; assay: MTT assay, A549; format: cell-based; conditions: A549 (Lung) human tumor cell line
Description: (§1) A549, DLD1, T47D and PC3 were purchased from ATCC (Manassas, Va.). MTT assay kit was purchased from Promega (Madison, Wis.). FK866 and NMN were purchased from Enzo Life Sciences (Farmingdale, N.Y.) and Sigma (St Louis, Mo.) respectively.
(§2) Additional MTT assays are show in FIGS. 11(A)-(D) and FIG. 12 for compounds (33)-(37).
(§3) The assay was performed according to the manufacturers protocol (CycLex NAMPT Colorimetric Assay Kit, MBL International Corp., Woburn, Mass.). The NAMPT assay was performed according manufacturers protocol. Briefly we used the “1-Step Assay Method” for which following reagents were mixed to make assay buffer and kept at ice before starting the assay: 10 μL each of 10× Nampt assay buffer, nicotinamide, PRPP, ATP and EtOH; 2 μL each of recombinant NMNAT1, WST-1, ADH, diaphorase and D2O. The Nampt inhibition assay was performed by mixing 2 μl of various concentrations (to make 1 pM-100 nM) of FK866 or (6) (or 2 μL DMSO as vehicle control) with the following: 2 μL recombinant Nampt and 36 μL D2O. The reaction was initiated by adding 60 μL of 1-Step Assay Buffer to each well and mixed thoroughly followed by incubation at 30° C. for 20 mins. After this period, the absorbance at 450 nm was measured and compared with the positive control. […] TABLE 4 lists measured Half-Maximal Inhibitory Concentrations (IC50) against Human Tumor Cell Lines A549 (Lung), DLD1 (Colon), and T47D (Breast).

[2] = system: DLD1 (Colon) human tumor cell line; assay: MTT assay, DLD1; format: cell-based
Description: as §1, §2, §3

[3] = system: T47D (Breast) human tumor cell line; assay: MTT assay, T47D; format: cell-based
Description: as §1, §2, §3

A549 cells = assay: Cell rescue assay with nicotinamide mononucleotide (NMN); format: cell-based, human; conditions: A549 cells treated with 10 nM agent; 1, 10 or 100 μM NMN; 72 h; MTT
Description: A549 cells were treated with 10 nM (1), (5), (6), or (7). Error bars represent the mean±SD. Cell viability was measured using the MTT assay. Each measurement was repeated 4 times.
Cell rescue assays were conducted using Nicotinamide Mononucleotide (NMN) as described by Busso et al. (Busso, N.; Karababa, M.; Nobile, M.; Rolaz, A.; Van Gool, F.; Galli, M.; Leo, O.; So, A.; De Smedt, T. Pharmacological inhibition of nicotinamide phosphoribosyltransferase/visfatin enzymatic activityidentifies a new inflammatory pathway linked to NAD. PLoS One 2008, […], e2267.) Briefly, A549 and DLD1 cells were plated at a density of 10,000 cells per well in 96 well plates for overnight. Cells were then treated with 10 nM concentrations of agents (1), (5)-(7). Simultaneously, concentrations of 1, 10 or 100 μM NMN were added to the cultures. Cultures were then continued for 72 h. MTT reagent was added to the cells after 72 h for a period of 3 h and then MTT crystals were solubilized using solubilization buffer. Readings were taken at 570 nm wavelength. Control cells were considered as 100% survival to plot the inhibition and rescue graph. The experiments were repeated four times.

DLD1 = assay: Scratch test (wound healing) assay; format: cell-based, human; conditions: for relative potencies of the compounds: wound healing experiments, consistent with cell viability assays; for inhibition of cancer cell migration: 1 nM test agent, 24 h, FIG. 9
Description: The antimigratory effects of compounds (5)-(7) were compared with FK866 by employing a wound healing or scratch test analysis using various cell cancer lines. The assay measures the ability of a drug to inhibit cancer cell migration across a gap “scratched” in a confluent layer of cells. The cells were imaged immediately after the formation of the wound and then incubated with 1 nM concentrations of each test agent. After 24 h, the wounds were imaged again and compared with a control group of untreated cells. […] The results of the wound healing experiments are consistent with those from the cell viability assays with regard to the relative potencies of the compounds (6)>(7)>(5)>FK866.

| Molecule | IC50 [1] | IC50 ([2]; DLD-1) | IC50 [3] | IC50 [2] | cell rescue by NMN (A549 cells) | relative potencies of the compounds (DLD1) | inhibition of cancer cell migration (DLD1) |
| --- | --- | --- | --- | --- | --- | --- | --- |
| O=C(/C=C/c1cccnc1)NCCC#CC12CC3CC(CC(C3)C1)C2 [Compound 4] | 88.9 ± 1.1 nM | 20.3 ± 0.44 nM | 186 ± 4.1 nM |  |  |  |  |
| 1-(4′-(Trans-3″-(3′″-pyridyl)acrylamido)butyl)-1,12-dicarba-closo-dodecaborane [Compound 7] | 0.99 ± 0.03 nM |  | 0.58 ± 0.03 nM | 2.2 ± 0.12 nM | nearly complete rescue | (6)>(7)>(5)>FK866 |  |
| 1-(4′-(Trans-3″-(3′″pyridyl)acrylamido)butyl)-1,7-dicarba-closo-dodecaborane [Compound 6] | 0.41 ± 0.01 nM |  | 0.32 ± 0.02 nM | 0.31 ± 0.01 nM | nearly complete rescue | (6)>(7)>(5)>FK866 | highest potency |
| O=C(/C=C/c1cccnc1)NCCCCC1CCN(C(=O)c2ccccc2)CC1 [Compound 1, reference compound] | 1.62 ± 0.04 nM | 3.14 ± 0.11 nM | 3.2 ± 0.16 nM |  | nearly complete rescue | (6)>(7)>(5)>FK866 | partially inhibited cell migration |
